# Measured values taken from US20250345330A1 (Veradermics, Incorporated, priority 2024, published 2025).
# Where two headings read alike, the source gives them in different places.
# Key:
# [1] = system: rats; settings: two-year, oral administration; cited from earlier work
# [2] = system: Chinese hamster cells; settings: long exposure times; cited from earlier work
# [3] = system: male adults with AGA; settings: 5 mg oral at bedtime; 24 weeks; cited from earlier work
# [4] = cited from earlier work; for Cmax: tablets, healthy subjects
# [5] = initially; chronic therapy; cited from earlier work
# [6] = system: rats; settings: cited from earlier work
# [7] = cited from earlier work
# [8] = system: person with androgenetic alopecia; test: Case studies: oral minoxidil in male patients with androgenetic alopecia (blood pressure, heart rate, hair growth); settings: 1.25 mg QID
# [9] = primarily conjugation with glucuronic acid; cited from earlier work
structure (smiles),measurement,setting,value
"Nc1cc(N2CCCCC2)nc(N)[n+]1[O-] [Minoxidil, minoxidil]",Carcinogenicity findings,[1],no positive findings
same,Cytogenetic assay result,[2],equivocal result
same,Cardiovascular outcomes,[3],No adverse cardiovascular outcomes were observed
same,Dose dependence of PK,"[4]; 2.5 mg, 5 mg, or 10 mg oral, healthy volunteers",dose-independent PK
same,Duration of plasma concentrations above 20 ng/mL,[4]; 5 mg dose level,around 1 h
same,Duration of plasma concentrations above 20 ng/mL,[4]; 10 mg dose level,around 2 h
same,Cmax,[4]; 2.5 mg,16.8 ng/mL
same,Cmax,[4]; 5 mg,37.2 ng/mL
same,Cmax,[4]; 10 mg,74.7 ng/mL
same,"Temporary decrease in hematocrit, hemoglobin, and erythrocyte count (hemodilution)",[5],approximately 7%
same,Fetal resorption,[6],not seen in rats
same,Radioactivity found in feces,"[7]; human, in vivo",3%
same,"Radioactivity recovered from urine, in total","[7]; human, in vivo",97%
same,Radiolabeled minoxidil and metabolites recovered from urine,[7]; within 24 h after oral administration,Over 80%
same,Adverse events,[8],No unwanted hair growth or other adverse events
same,Fraction of oral minoxidil metabolized,[9],About 90%
